Some results are limits rather than exact numbers.

Chain of Factor D (P00746 26-253): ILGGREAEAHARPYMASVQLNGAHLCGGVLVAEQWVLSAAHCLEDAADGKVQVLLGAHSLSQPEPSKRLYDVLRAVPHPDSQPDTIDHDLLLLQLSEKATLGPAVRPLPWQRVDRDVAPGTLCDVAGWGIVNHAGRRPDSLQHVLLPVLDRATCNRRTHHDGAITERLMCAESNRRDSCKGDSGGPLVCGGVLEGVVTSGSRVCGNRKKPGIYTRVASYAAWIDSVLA

The assay has as its target Factor D (Homo sapiens, UniProt P00746). The experiment in a line: Factor D esterolytic assay (Z-Lys-SBzl thioester substrate, DTNB, 405 nm). In kind it is biochemical. The following applies: substrate Z-Lys-SBzl 1.29 mM, 100 mM HEPES, 500 mM NaCl, pH 7.5, 10% DMSO, tested a minimum of three times. The essentials: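 Human Factor D hydrolysis of Z-Lys-SBzl (1.29 mM) monitored at 405 nm via DTNB thiol detection for 600 s, 690 nm background subtracted. Buffer 100 mM HEPES, 500 mM NaCl, pH 7.5, 10% DMSO; substrate added immediately or after room-temperature preincubation. IC50 from percent inhibition of rate, at least three tests.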
For the compound `Nc1ccc2c(c1)c1c(N)ncnc1n2CC(=O)N1[C@@H]2C[C@@H]2C[C@H]1C(=O)Nc1cccc(Br)n1` [Compound 61a, (1R,3S,5R)—N-(6-bromopyridin-2-yl)-2-(2-(4,6-diamino-9H-pyrimido[4,5-b]indol-9-yl)acetyl)-2-azabicyclo[3.1.0]hexane-3-carboxamide], the IC50 is < 100 nM. The value for `Nc1ncnc2c1c1c(C(=O)O)cccc1n2CC(=O)N1[C@@H]2C[C@@H]2C[C@H]1C(=O)Nc1cccc(Br)n1` [Compound 224b, 4-amino-9-(2-((1R,3S,5R)-3-((6-bromopyridin-2-yl)carbamoyl)-2-azabicyclo[3.1.0]hexan-2-yl)-2-oxoethyl)-9H-pyrimido[4,5-b]indole-5-carboxylic acid] was > 1000 nM. The value for `Cc1cc(C(F)(F)F)cc2c3c(N)ncnc3n(CC(=O)N3C[C@H](F)C[C@H]3C(=O)Nc3cccc(Br)n3)c12` [Compound 301a, (2S,4R)-1-(2-(4-amino-8-methyl-6-(trifluoromethyl)-9H-pyrimido[4,5-b]indol-9-yl)acetyl)-N-(6-bromopyridin-2-yl)-4-fluoropyrrolidine-2-carboxamide] was < 100 nM; that for `C[C@@]12C[C@@H](C(=O)Nc3cccc(Br)n3)N(C(=O)Cn3c4ccc(OC(F)(F)F)cc4c4c(N)ncnc43)[C@@H]1C2` [Compound 334a, (1R,3S,5R)-2-(2-(4-amino-6-(trifluoromethoxy)-9H-pyrimido[4,5-b]indol-9-yl)acetyl)-N-(6-bromopyridin-2-yl)-5-methyl-2-azabicyclo[3.1.0]hexane-3-carboxamide] was < 100 nM; that for `Cc1cc(C(F)(F)F)cc2c3c(N)ncnc3n(CC(=O)N3[C@@H]4C[C@@H]4C[C@H]3C(=O)Nc3nc(Br)ccc3F)c12` [Compound 317c, (1R,3S,5R)-2-(2-(4-amino-8-methyl-6-(trifluoromethyl)-9H-pyrimido[4,5-b]indol-9-yl)acetyl)-N-(6-bromo-3-fluoropyridin-2-yl)-2-azabicyclo[3.1.0]hexane-3-carboxamide] was 100 to 1000 nM. For `Nc1c(C=O)cnc2c1ccn2CC(=O)N1[C@@H]2C[C@@H]2C[C@H]1C(=O)Nc1cccc(Br)n1` [Compound 156e, (1R,3S,5R)-2-(2-(4-amino-5-formyl-1H-pyrrolo[2,3-b]pyridin-1-yl)acetyl)-N-(6-bromopyridin-2-yl)-2-azabicyclo[3.1.0]hexane-3-carboxamide], the IC50 lay in the range of 100 to 1000 nM. The same measure for `Cc1cccc2c3c(N)ncnc3n(CC(=O)N3[C@H](C(=O)Nc4cccc(Br)n4)C[C@@]4(C)C[C@@H]34)c12` [Compound 55a, (1R,3S,5R)-2-(2-(4-amino-8-methyl-9H-pyrimido[4,5-b]indol-9-yl)acetyl)-N-(6-bromopyridin-2-yl)-5-methyl-2-azabicyclo[3.1.0]hexane-3-carboxamide]: < 100 nM. The value for `C[C@@]12C[C@@H](C(=O)Nc3cccc(Br)n3)N(C(=O)Cn3c4ccc(C(F)(F)F)cc4c4c(N)ncnc43)[C@@H]1C2` [Compound 28a, (1R,3S,5R)-2-(2-(4-amino-6-(trifluoromethyl)-9H-pyrimido[4,5-b]indol-9-yl)acetyl)-N-(6-bromopyridin-2-yl)-5-methyl-2-azabicyclo[3.1.0]hexane-3-carboxamide] was < 100 nM; that for `Cc1cc(-c2ccnc(C(F)(F)F)c2)cc2c3c(N)ncnc3n(CC(=O)N3[C@@H]4C[C@@H]4C[C@H]3C(=O)Nc3cccc(Br)n3)c12` [Compound 354c, (1R,3S,5R)-2-(2-(4-amino-8-methyl-6-(2-(trifluoromethyl)pyridin-4-yl)-9H-pyrimido[4,5-b]indol-9-yl)acetyl)-N-(6-bromopyridin-2-yl)-2-azabicyclo[3.1.0]hexane-3-carboxamide] was < 100 nM; that for `N#Cc1ccc2c(c1)c1c(N)ncnc1n2CC(=O)N1[C@@H]2C[C@@H]2C[C@H]1C(=O)Nc1cccc(Br)n1` [Compound 49c, (1R,3S,5R)-2-(2-(4-amino-6-cyano-9H-pyrimido[4,5-b]indol-9-yl)acetyl)-N-(6-bromopyridin-2-yl)-2-azabicyclo[3.1.0]hexane-3-carboxamide] was < 100 nM. The value for `Nc1ncnc2c1c1cnccc1n2CC(=O)N1[C@@H]2C[C@@H]2C[C@H]1C(=O)Nc1cccc(Br)n1` [Compound 163g, (1R,3S,5R)-2-(2-(4-amino-9H-pyrido[3′,4′:4,5]pyrrolo[2,3-d]pyrimidin-9-yl)acetyl)-N-(6-bromopyridin-2-yl)-2-azabicyclo[3.1.0]hexane-3-carboxamide] was < 100 nM.

Take `COc1ccc2c3c(N)ncnc3n(CC(=O)N3[C@H](C(=O)Nc4cccc(Br)n4)C[C@@]4(C)C[C@@H]34)c2c1` [Compound 37a, (1R,3S,5R)-2-(2-(4-amino-7-methoxy-9H-pyrimido[4,5-b]indol-9-yl)acetyl)-N-(6-bromopyridin-2-yl)-5-methyl-2-azabicyclo[3.1.0]hexane-3-carboxamide]: the IC50 is < 100 nM. As for `Cc1cc(-c2ccoc2)cc2c3c(N)ncnc3n(CC(=O)N3[C@H](C(=O)Nc4cccc(Br)n4)C[C@@]4(C)C[C@@H]34)c12` [Compound 353a, (1R,3S,5R)-2-(2-(4-amino-6-(furan-3-yl)-8-methyl-9H-pyrimido[4,5-b]indol-9-yl)acetyl)-N-(6-bromopyridin-2-yl)-5-methyl-2-azabicyclo[3.1.0]hexane-3-carboxamide], the 50% inhibitory concentration (IC50) is < 100 nM.

For `C[C@@]1(F)C[C@@H](C(=O)NCc2cccc(Cl)c2F)N(C(=O)Cn2cnc3c(N)ncnc32)C1` [Compound 122c, (2S,4R)-1-(2-(6-amino-9H-purin-9-yl)acetyl)-N-(3-chloro-2-fluorobenzyl)-4-fluoro-4-methylpyrrolidine-2-carboxamide], the half-inhibitory concentration (IC50) is 100 to 1000 nM.

`Cc1cc(C(F)(F)F)nc2c3c(N)ncnc3n(CC(=O)N3[C@@H]4C[C@@H]4C[C@H]3C(=O)Nc3cccc(Br)n3)c12` [Compound 362f, (1R,3S,5R)-2-(2-(4-amino-8-methyl-6-(trifluoromethyl)-9H-pyrido[2′,3′:4,5]pyrrolo[2,3-d]pyrimidin-9-yl)acetyl)-N-(6-bromopyridin-2-yl)-2-azabicyclo[3.1.0]hexane-3-carboxamide]: the half-maximal inhibitory concentration (IC50) is < 100 nM. The same measure for `Cc1ccc(Cl)nc1NC(=O)[C@@H]1C[C@@]2(C)C[C@H]2N1C(=O)Cn1c2ncnc(N)c2c2cc(C(F)(F)F)cc(C)c21` [Compound 332c, (1R,3S,5R)-2-(2-(4-amino-8-methyl-6-(trifluoromethyl)-9H-pyrimido[4,5-b]indol-9-yl)acetyl)-N-(6-chloro-3-methylpyridin-2-yl)-5-methyl-2-azabicyclo[3.1.0]hexane-3-carboxamide]: < 100 nM; for `C[C@@]12C[C@@H](C(=O)Nc3cccc(Br)n3)N(C(=O)Cn3c4cccc(C(=O)O)c4c4c(N)ncnc43)[C@@H]1C2` [Compound 222a, 4-amino-9-(2-((1R,3S,5R)-3-((6-bromopyridin-2-yl)carbamoyl)-5-methyl-2-azabicyclo[3.1.0]hexan-2-yl)-2-oxoethyl)-9H-pyrimido[4,5-b]indole-5-carboxylic acid]: > 1000 nM. The value for `CC(=O)c1ccc2c(c1)c1c(N)ncnc1n2CC(=O)N1[C@@H]2C[C@@H]2C[C@H]1C(=O)Nc1cccc(Br)n1` [Compound 58c, (1R,3S,5R)-2-(2-(6-acetyl-4-amino-9H-pyrimido[4,5-b]indol-9-yl)acetyl)-N-(6-bromopyridin-2-yl)-2-azabicyclo[3.1.0]hexane-3-carboxamide] was < 100 nM; that for `Nc1cccc2c1ccn2CC(=O)N1[C@@H]2C[C@@H]2C[C@H]1C(=O)Nc1cccc(Br)n1` [Compound 85b, (1R,3S,5R)-2-(2-(4-amino-1H-indol-1-yl)acetyl)-N-(6-bromopyridin-2-yl)-2-azabicyclo[3.1.0]hexane-3-carboxamide] was > 1000 nM. The value for `Nc1ncnc2c1c1cc(C(F)(F)F)ccc1n2CC(=O)N1[C@@H]2C[C@@H]2C[C@H]1C(=O)Nc1cccc(Br)n1` [Compound 27a, (1R,3S,5R)-2-(2-(4-amino-6-(trifluoromethyl)-9H-pyrimido[4,5-b]indol-9-yl)acetyl)-N-(6-bromopyridin-2-yl)-2-azabicyclo[3.1.0]hexane-3-carboxamide] was < 100 nM. In the case of `CC(=O)Nc1ccc2c(c1)c1c(N)ncnc1n2CC(=O)N1[C@@H]2C[C@@H]2C[C@H]1C(=O)Nc1cccc(Br)n1` [Compound 168g, (1R,3S,5R)-2-(2-(6-acetamido-4-amino-9H-pyrimido[4,5-b]indol-9-yl)acetyl)-N-(6-bromopyridin-2-yl)-2-azabicyclo[3.1.0]hexane-3-carboxamide], the IC50 was < 100 nM. With `C[C@@]12C[C@@H](C(=O)Nc3cccc(Br)n3)N(C(=O)Cn3c4ncccc4c4c(N)ncnc43)[C@@H]1C2` [Compound 183a, (1R,3S,5R)-2-(2-(4-amino-9H-pyrido[3′,2′:4,5]pyrrolo[2,3-d]pyrimidin-9-yl)acetyl)-N-(6-bromopyridin-2-yl)-5-methyl-2-azabicyclo[3.1.0]hexane-3-carboxamide], the IC50 was < 100 nM. Regarding `C[C@@]12C[C@@H](C(=O)Nc3cccc(Br)n3)N(C(=O)Cn3c4ccc(Br)nc4c4c(N)ncnc43)[C@@H]1C2` [Compound 292a, (1R,3S,5R)-2-(2-(4-amino-6-bromo-9H-pyrido[2′,3′:4,5]pyrrolo[2,3-d]pyrimidin-9-yl)acetyl)-N-(6-bromopyridin-2-yl)-5-methyl-2-azabicyclo[3.1.0]hexane-3-carboxamide], the IC50 is < 100 nM.

For the compound `Cc1cc(-c2ccccc2)cc2c3c(N)ncnc3n(CC(=O)N3[C@H](C(=O)Nc4cccc(Br)n4)C[C@@]4(C)C[C@@H]34)c12` [Compound 230a, (1R,3S,5R)-2-(2-(4-amino-8-methyl-6-phenyl-9H-pyrimido[4,5-b]indol-9-yl)acetyl)-N-(6-bromopyridin-2-yl)-5-methyl-2-azabicyclo[3.1.0]hexane-3-carboxamide], the IC50 was < 100 nM.

In general, IC50 refers to the concentration needed to halve the response being measured.

The values are drawn from patent publication US12679843B2, “Pyrrolopyrimidine amines as complement inhibitors” (BioCryst Pharmaceuticals, Inc., priority 2020, dated 2026).
